Source: paper PMC5506877 (Heliyon, 2017)
Values joined by “and” are separate entries in the source; they are usually repeats but may differ in a detail not shown here. Equal values may be shown once.

Tests used:
[1] = plasma protein binding by equilibrium dialysis; assay type: in vitro ADME, human; conditions: for recovery at 24 h: pooled human plasma dialysed against PBS, human plasma / PBS after dialysis, read-out: recovery in the plasma protein binding (equilibrium dialysis) experiment
Protocol: Plasma was obtained by centrifugation (4 °C, 1600 g, 10 min, CF7D2, Hitachi Koki) of EDTA‐treated blood from three healthy male volunteers and was then pooled. […] Samples for M4 were mixed with deuterated M4 as an internal standard and acetonitrile/methanol (1:1, v/v). After centrifugation, the supernatant was injected into an LC/ESI-MS/MS system consisting of ACQUITY Ultra Performance LC (Waters) and API 4000 (AB Sciex) in positive-ion multiple-reaction monitoring (MRM) mode to measure M4 (Q1: m/z 457 and Q3: m/z 396) concentration. Chromatography was performed using ACQUITY UPLC BEH Phenyl (2.1 mm I.D. × 50 mm, 1.7 μm, Waters) at 60 °C; MP A: water/98% formic acid (1000/1, v/v), MP B: methanol/98% formic acid (1000/1, v/v), with a flow rate of 0.7 mL/min and a gradient program as follows: (time, % MP B): 0 min, 40%; 0.3 min, 40%; 1.9 min, 45%; 1.91 min, 90%; 2.20 min, 90%; 2.21 min, 40%; 2.70 min, stop. For the protein binding of M4, 1–5000 ng/mL in human plasma, and 0.5–2500 ng/mL in PBS were calibrated.
The recovery was calculated by the following equation.
Protein binding was calculated by the following equation.
Protein binding = (1−Cf/Cp) × 100 (%)
Where Cf and Cp represent the concentration in PBS and in plasma, respectively.

[2] = cited from earlier work
[3] = at pH 3.575; cited from earlier work
[4] = human ADME study: metabolite profiling in plasma, urine and faeces after single oral [14C]alectinib; assay type: in vivo
Protocol: Human plasma for protein binding was obtained from three healthy male volunteers. All participants provided written informed consent prior to study related procedures. The protocol of human ADME study was approved by the Independent Ethics Committee of the Stichting Beoordeling Ethiek Bio-Medisch Onderzoek (Assen, The Netherlands), and that of protein binding study was approved by Chugai IRB.
Plasma samples were pooled at 4 h and 6 h (4 h + 6 h), and 8 h and 12 h (8 h +12 h) across the six subjects. An 18-mL aliquot of pooled plasma was extracted with the same volume of acetonitrile twice, and then the extract was lyophilized. The resulting residue was further extracted with 3 mL of acetonitrile/water (9:1, v/v) twice and lyophilized again. The resulting residue was reconstituted with 900 μL of methanol/water (7:3, v/v) to obtain the supernatant as an HPLC sample in which plasma was 20-fold concentrated.
Urine samples were pooled at 0–24 h, and at 24–72 h across the six subjects. A 16-mL aliquot of pooled urine was concentrated 20-fold using the same process for plasma.
Faecal samples were pooled at 0–48 h, 48–96 h, and 96–168 h across the six subjects. One to two weight equivalents of water was added to the faecal samples and the samples were homogenized and mixed with the same volume of acetonitrile. After following the same procedure as for plasma, the residue was reconstituted with methanol/water (7:3, v/v) or dimethyl sulfoxide (DMSO) and centrifuged, and the faecal sample was concentrated 5-fold for use in analysis.
Alkaline Conditions: For metabolite profiling, the extracted samples from plasma, urine, and faeces were subjected to HPLC under alkaline conditions using XBridge™ Shield RP18, 3.5 μm, 4.6 × 150 mm (Waters), and a linear stepwise gradient with solvent A (consisting of water/30%trimethylamine at 100:0.1, v/v) and solvent B (consisting of acetonitrile/30%trimethylamine at 100:0.1, v/v), and a flow rate of 1 mL/min. Solvent B in the gradient started at 1% and then changed as follows: 30% (2 min), 60% (29 min), 98% (29.1 min), 98% (32 min), 1% (32.1 min), and 1% (40 min). The UV wavelength was set at 335 nm. […]
Plasma and Urine: To profile metabolites, 150 μL of the same HPLC sample of plasma or 100 μL of the same HPLC sample of urine was injected 3 separate time, and the eluates collected at 15-second intervals were combined to be measured by a liquid scintillation counter (LSC) (Tri-Carb 3100TR, PerkinElmer, Inc.) at a low level count mode for 10 min.
Faeces: A radiodetector (Radiomatic 625TR, PerkinElmer, Inc.) was used, and the area percentage of each radioactive peak on the radiochromatograms was calculated with analysis software (FLO-ONE Ver. 3.65, PerkinElmer, Inc.). […]

ALK = ALK (Homo sapiens, UniProt Q9UM73); experiment: inhibitory activity against ALK, cell-free TR-FRET kinase assay; assay type: biochemical; conditions: 90 min at 30 °C, geometric mean of triplicates
Protocol: Solutions of test articles, substrate/ATP (2 μmol/L substrate peptide-0.2 mol/L HEPES buffer containing 60 μmol/L ATP, 20 mmol/L MgCl2, 0.2 mmol/L DTT, and 40 μmol/L Na3VO4) and the enzyme (final concentration of 200 ng/mL) were mixed in a clear-bottomed 384-well black plate and incubated for 90 min at 30 °C. After adding stop solution (100 mmol/L EDTA-0.1 mol/L HEPES buffer), TR-FRET reagent (2.5 nmol/L of LANCE® Eu-W1024-labeled anti-phosphotyrosine (PT66) and 6.25 μg/mL of Streptavidine SureLight® APC) was added and the time-resolved fluorescence was measured by EnVision HTS (Model 2104, PerkinElmer).

[5] = test system: NCI-H2228 NSCLC cell line that harbours EML4-ALK fusion; experiment: cell growth inhibition, CellTiter-Glo, NCI-H2228 spheroid culture; assay type: cell-based; conditions: for IC50: Homo sapiens
Protocol: Then test article solutions were added and the cell viability was measured after a 120-h incubation in a CO2 incubator. The luminescence was measured by EnVision HTS and the cell viability was calculated.

[6] = male, human, plasma, human plasma, 37 °C 24 h dialysis, mean ± SD of triplicates
[7] = NCI-H2228 cells, 120-h incubation, geometric mean of triplicates
[8] = human, single oral 600 mg/67 μCi [14C]alectinib, pooled across n = 6, ND: Not detected

Chain of ALK (Q9UM73 19-1620): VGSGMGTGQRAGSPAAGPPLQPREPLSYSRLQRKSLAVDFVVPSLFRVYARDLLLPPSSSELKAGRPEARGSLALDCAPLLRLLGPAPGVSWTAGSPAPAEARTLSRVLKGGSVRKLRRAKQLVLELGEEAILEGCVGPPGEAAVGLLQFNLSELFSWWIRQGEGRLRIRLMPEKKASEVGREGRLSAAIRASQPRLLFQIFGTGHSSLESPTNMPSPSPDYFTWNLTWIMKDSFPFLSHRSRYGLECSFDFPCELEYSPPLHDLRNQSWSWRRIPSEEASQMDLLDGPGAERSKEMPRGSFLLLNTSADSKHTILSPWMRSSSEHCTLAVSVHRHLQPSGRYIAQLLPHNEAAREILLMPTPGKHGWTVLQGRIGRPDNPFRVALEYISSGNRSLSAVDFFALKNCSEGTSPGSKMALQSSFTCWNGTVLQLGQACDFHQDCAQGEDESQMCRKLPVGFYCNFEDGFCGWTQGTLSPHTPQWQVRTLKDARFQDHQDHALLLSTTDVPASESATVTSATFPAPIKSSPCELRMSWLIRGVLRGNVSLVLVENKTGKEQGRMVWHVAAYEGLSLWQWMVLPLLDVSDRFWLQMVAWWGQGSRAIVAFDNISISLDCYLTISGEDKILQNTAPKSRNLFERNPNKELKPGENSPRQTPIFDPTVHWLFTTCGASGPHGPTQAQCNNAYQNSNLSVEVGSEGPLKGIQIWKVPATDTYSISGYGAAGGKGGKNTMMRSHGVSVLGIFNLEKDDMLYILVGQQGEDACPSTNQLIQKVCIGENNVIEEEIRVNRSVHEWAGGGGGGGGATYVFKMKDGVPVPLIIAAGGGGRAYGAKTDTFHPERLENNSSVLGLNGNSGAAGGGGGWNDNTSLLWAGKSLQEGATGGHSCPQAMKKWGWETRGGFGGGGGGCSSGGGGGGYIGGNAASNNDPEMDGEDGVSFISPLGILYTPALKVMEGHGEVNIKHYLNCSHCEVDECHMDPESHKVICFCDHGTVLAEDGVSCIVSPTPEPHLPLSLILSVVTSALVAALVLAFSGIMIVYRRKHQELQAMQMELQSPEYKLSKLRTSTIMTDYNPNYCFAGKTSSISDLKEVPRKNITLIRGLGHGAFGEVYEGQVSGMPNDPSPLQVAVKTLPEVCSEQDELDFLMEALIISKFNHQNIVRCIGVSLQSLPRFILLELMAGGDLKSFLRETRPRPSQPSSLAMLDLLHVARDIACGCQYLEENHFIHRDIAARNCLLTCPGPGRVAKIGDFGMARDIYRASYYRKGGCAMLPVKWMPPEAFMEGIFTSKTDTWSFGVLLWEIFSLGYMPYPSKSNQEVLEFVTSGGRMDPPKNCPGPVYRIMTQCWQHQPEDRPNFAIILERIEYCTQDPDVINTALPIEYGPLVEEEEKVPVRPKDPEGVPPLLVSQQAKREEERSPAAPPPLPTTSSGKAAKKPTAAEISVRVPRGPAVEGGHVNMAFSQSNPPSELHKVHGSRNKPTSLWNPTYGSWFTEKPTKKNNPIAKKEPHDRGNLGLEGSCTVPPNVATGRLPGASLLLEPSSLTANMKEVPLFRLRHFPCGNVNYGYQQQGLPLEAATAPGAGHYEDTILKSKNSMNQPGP

## CCc1cc2c(cc1N1CCC(N3CCOCC3)CC1)C(C)(C)c1[nH]c3cc(C#N)ccc3c1C2=O [Alectinib, 9-ethyl-6,6-dimethyl-8-(4-morpholino-1-piperidyl)-11-oxo-5H-benzo[b]carbazole-3-carbonitrile, reference compound]
[1]; human plasma, all concentrations investigated
  human plasma protein binding over the range of concentration investigated: higher than 99%
[1]; male, human, plasma, human plasma, 0.1 μg/mL, 37 °C 24 h dialysis, mean ± SD of triplicates
  fraction unbound at 24 h, 0.1 μg/mL: 0.004
[1]; [6]
  fraction unbound at 24 h, 1 μg/mL: 0.003
[1]; male, human, plasma, human plasma, 10 μg/mL, 37 °C 24 h dialysis, mean ± SD of triplicates
  fraction unbound at 24 h, 10 μg/mL: 0.003
[1]; male
  recovery at 24 h: 85 ± 1.7%
[2]; human ADME study, 600 mg oral [14C]alectinib
  Cmax in plasma: 175 ng/mL
[2]; human, up to 168 h post-dose, % of dose administered
  recovery of radioactivity within excretion in faeces: 97.8%
[2]; human, up to 168 h post-dose
  recovery of radioactivity within excretion in urine: 0.5%
[3]
  logD: 1.96

## CCc1cc2c(cc1N1CCC(NCCOCC(=O)O)CC1)C(C)(C)c1[nH]c3cc(C#N)ccc3c1C2=O [M1a]
[4]; human faeces 48–96 h, fractionated M1, acidic HPLC conditions, radioactivity
  ratio of M1a peak to M1b peak, radiochromatogram: 1 to 9 and 1/9
[4]; human faeces 48–96 h, fractionated M1, acidic conditions, [M + H]+
  ratio of M1a to M1b, extracted ion chromatogram (XIC): 1 to 3 and 1/3
[4]; human plasma, LC-MS acidic conditions
  ratio of M1a to M1b in the XIC, plasma: 1/8
[4]; human urine, LC-MS acidic conditions
  ratio of M1a to M1b in the XIC, urine: 1/10

## CCc1cc2c(cc1N1CCC(N(CCO)CC(=O)O)CC1)C(C)(C)c1[nH]c3cc(C#N)ccc3c1C2=O [M1b]
ALK
  IC50: 1.6 nM
[5]; [7]
  IC50: 320 nM
  IC50 Cell growth: much weaker effect
[5]; cell medium contained 10% FBS
  fold shift in IC50 from the ALK enzyme inhibition assay to the cell growth inhibition assay: ~200 fold

## CCc1cc2c(cc1N1CCC(NCCO)CC1)C(C)(C)c1[nH]c3cc(C#N)ccc3c1C2=O [M4, 9-ethyl-8-[4-(2-hydroxyethylamino)-1-piperidyl]-6,6-dimethyl-11-oxo-5H-benzo[b]carbazole-3-carbonitrile]
ALK
  IC50: 1.2 nM
[5]; [7]
  IC50: 37 nM
[1]; male, human, plasma, human plasma, 0.3 μg/mL, 37 °C 24 h dialysis, mean ± SD of triplicates
  fraction unbound at 24 h, 0.3 μg/mL: 0.009
[1]; [6]
  fraction unbound at 24 h, 1 μg/mL: 0.005
[1]; male, human, plasma, human plasma, 2 μg/mL, 37 °C 24 h dialysis, mean ± SD of triplicates
  fraction unbound at 24 h, 2 μg/mL: 0.005
[1]; male, human, plasma, human plasma, all concentrations investigated, read-out: human plasma protein binding over the range of concentration investigated
  fraction unbound at 24 h: < 0.01
[1]; male
  recovery at 24 h: 82.7 ± 2.5%
[2]; human plasma, LC/MS drug concentration vs total radioactivity
  AUC ratio for the percentage of total drug-related systemic exposure: 15%
[2]; human, faeces, single oral [14C]alectinib
  amount of metabolite in faecal samples, % of the dose administered: 5.8%
[2]; [8]
  Percentage of drug related compound in analytical sample, Faeces 0–48 h: 1.1%
  Percentage of drug related compound in analytical sample, Faeces 48–96 h: 11.0%
  Percentage of drug related compound in analytical sample, Faeces 96–168 h: 37.3%
  Percentage of drug related compound in analytical sample, Plasma 4 h + 6 h: 7.0%
  Percentage of drug related compound in analytical sample, Plasma 8 h + 12 h: 9.9%
  Percentage of drug related compound in analytical sample, Urine 0–24 h: 9.0%
  Percentage of drug related compound in analytical sample, Urine 24–72 h: 24.2%

## CCc1cc2c(cc1N1CCC(N)CC1)C(C)(C)c1[nH]c3cc(C#N)ccc3c1C2=O [M6, 8-(4-amino-1-piperidyl)-9-ethyl-6,6-dimethyl-11-oxo-5H-benzo[b]carbazole-3-carbonitrile]
[2]; [8]
  Percentage of drug related compound in analytical sample, Faeces 96–168 h: 5.6%
